What was measured:
[1] = tested on: Carrageenin Induced Paw Edema in Rats; test: Anti-inflammatory effect on carrageenin induced paw edema in rats; assay type: in vivo, rat; conditions: for Percent paw edema suppression: Wistar male rats, oral 10 mg/5 mL/kg one hour before carrageenin, paw volume four hours after treatment, means of 5˜8 cases
Description: Test for Evaluating the Anti-Inflammatory Effect on Carrageenin Induced Paw Edema in Rats
The animals were Wistar male rats (7-week old). The paw volume of the right hind leg was measured with a paw volume meter (PLETHYSMOMETER, Ugo Basile Model 7141 or 7150). One hour after orally administering a test compound at a dose of 10 mg/5 mL/kg, a carrageenin treatment group was given a 1 w/v % carrageenin solution and a non-treatment group given distilled water, each administered subcutaneously to the footpad of the right hind leg at a dose of 0.1 mL. Four hours after the treatment with carrageenin (or distilled water), the paw volume was measured and the change in paw volume from the pre-treatment value was calculated. The anti-inflammatory effect of the test compound was confirmed using the percent paw edema suppression (see below) as an indicator. In the present experimental models, Cerecoxib (COX inhibitor already available on the market as an anti-inflammatory/analgesic agent) was used as a positive control.

[2] = tested on: Monoiodoacetic Acid Induced Joint Pain in Rats; test: Analgesic effect on monoiodoacetic acid induced joint pain in rats; assay type: in vivo, rat; conditions: SD male rats, oral 10 mg/kg three days after MIA treatment, measured two hours later with incapacitance tester
Description: Test for Evaluating Analgesic Effect on Monoiodoacetic Acid Induced Joint Pain in Rats
The animals were SD male rats (6 week-old). The right knee of each animal was treated intraarticularly with monoiodoacetic acid (MIA) to induce joint pain. Three days after the MIA treatment, a test compound (10 mg/kg) was administered orally and two hours later, the loads on the right and left hind legs were measured with an incapacitance tester (Linton).

rat EP4 receptor = biological target: T1, rat EP4 receptor (Rattus norvegicus, UniProt P43114); test: Rat EP4 receptor antagonistic action by the reporter assay method; assay type: cell-based; conditions: COS-7 cells expressing rat EP4 receptor, CRE-LUC reporter, PGE2 1×10^−8 mol/L; geometric mean of three cases; read-out: Intensity of EP4 Receptor Antagonistic Activity IC50
T1 construct: its translated region was integrated into the expression vector pShooter (Invitrogen); expressed in transfected cells; host or cells: COS-7 cells (Cercopithecus aethiops kidney), transiently co-transfected with ratEP4-pShooter and a CRE-LUC reporter vector
Description: Test for Evaluating the Rat EP4 Receptor Antagonistic Action by the Reporter Assay Method
The first step was the cloning of the rat EP4 receptor. Total RNA was prepared from the kidney extracted from rats. With the total RNA used as a template, the rat EP4 receptor gene was cloned by RT-PCR and its translated region was integrated into the expression vector pShooter (Invitrogen) to prepare a rat EP4 receptor expressing vector (ratEP4-pShooter).
In the next step, rat EP4 receptor expressing cells for use in the reporter assay were prepared. COS-7 cells (derived from the kidney of Cercopithecus aethiops) were cultured in Dulbecco's Modified Eagle Medium (DMEM) (supplemented with 10% fetal bovine serum) in a 75-cm^2 cell culture flask. After the cells proliferated to a subconfluent state, the medium was removed and rinsed with phosphate buffered physiological saline (PBS). Trypsin-EDTA and a growth medium were used to recover the cells, which were then centrifuged. The supernatant was removed and the cells were suspended in DMEM. The cell suspension was seeded on a 96-well plate at a density of 2×10^4 cells/100 μL/well and cultured. The DMEM was mixed with Plus reagent, Lipofectamine 2000, the rat EP4 receptor expressing vector (ratEP4-pShooter) and a CRE-LUC reporter vector (CLONTECH) to prepare a transfection solution. Three hours after the seeding of the cells, 50 μL of the medium was removed and 50 μL/well of the transfection solution was added, followed by culture overnight. Negative control cells were prepared using pShooter in place of the receptor expressing vector. The cells were seeded on a 96-well plate for reporter assay and cultured.
The medium on the 96-well plate was removed and a test compound was added in an amount of 50 μL/well. After ca. 30-min culture, a PGE2 solution (2×10^−8 mol/L) was added in an amount of 50 μL/well (final concentration of PGE2: 1×10^−8 mol/L). As a PGE2-free control, there were provided wells to which a test medium had been added in an amount of 50 μL/well. About three hours later, the medium was removed and reporter assay was performed in accordance with the protocol accompanying the Steady-Glo Luciferase Assay System kit. Luminous intensity was measured with a microplate reader (Fusion-FPα, PerkinElmer) and EP4 receptor antagonistic activity (%) was determined by the following calculation formula: EP4 receptor antagonistic activity (%)=[1−(RLU(A,X)−RLU(0))/(RLU(PGE2)−RLU(0))]×100 RLU(A,X): Luminous intensity expressed in relative luminescence units (RLU) for the case where the test compound (A) X (mol/L) and PGE2 10^−8 mol/L were both added; RLU(PGE2): Luminous intensity for the case where only PGE2 10^−8 mol/L was added; RLU(0): Luminous intensity for the case where neither test compound nor PGE2 was added.
In addition, a dose-response curve was plotted from the EP4 receptor antagonistic activities at varying concentrations of each test compound and using the following approximation formula, the IC50 (the concentration of the test compound required to inhibit the PGE2 inducing activity by 50%) was calculated to determine the intensity of the compound's EP4 receptor antagonistic activity. The results are shown in Table 2: Y=Bottom+(Top−Bottom)/{1+10^(Log IC50−Log X)} Bottom: 0 Top: 100 X: Concentration of the test compound (mol/L) Y: EP4 receptor antagonistic activity (%)

[3] = tested on: Adjuvant Induced Arthritis in Rats; test: Anti-inflammatory and analgesic effects on adjuvant induced arthritis in rats; assay type: in vivo, rat; parameters: Percent Effectiveness: scale not given: direction of the effect not stated beside the values; conditions: Lewis male rats, oral 0.3 mg/kg once a day, day 9 to day 17 after adjuvant; for Percent paw edema suppression: measured at day 18, means of 8˜10 cases; for Percent Effectiveness: pain threshold at day 18, 8˜10 cases
Description: Test for Evaluating Anti-Inflammatory and Analgesic Effects on Adjuvant Induced Arthritis in Rats
The animals were Lewis male rats (6-week old). An adjuvant solution (2 mg/mL) was administered intradermally to the footpad of the left hind leg of each animal at a dose of 0.1 mL to create an arthritis model. Paw volume was measured with a paw volume meter (PLETHYSMOMETER, Ugo Basile Model 7141). For evaluation of pain thresholds, a probe fitted to the sensor site of Pressure Application Measurement (PAM, Ugo Basile Model 38500) was used to turn the foot sole of a rat upward (dorsiflexion) until it gave an indication of pain or discomfort (vocalization) and the load being applied was measured. Eight days after the treatment with the adjuvant, the paw volume and pain threshold of each treated foot were measured and the animals were grouped for oral administration of each test compound (0.3 mg/kg) which was performed for nine days on a once-a-day schedule starting at day 9 and ending at day 17 after the treatment. At day 18 after the treatment, the paw volume and pain threshold of each […] foot were measured.
The anti-inflammatory effect of the test compound was confirmed using the percent paw edema suppression as an indicator. Percent paw edema suppression (%)=[(paw volume change in the control group−paw volume in each treatment group)/(paw volume change in the control group−paw volume change in the non-treatment group)]×100
As for the analgesic effect, the animals in the test compound group that had nociceptive thresholds greater than [(the mean nociceptive threshold of the control group)+2×standard deviation] were found “effective animals” and the percent effectiveness of each compound was calculated.

[4] = tested on: Carrageenin Induced Hyperalgesia in Rats; test: Analgesic effect on carrageenin induced hyperalgesia in rats; assay type: in vivo; conditions: Rattus norvegicus, 2 h; SD male rats, oral 10 mg/5 mL/kg six hours after carrageenin, nociceptive threshold (Randall-Selitto) two hours after administration; 5˜7 cases; read-out: Percent Effectiveness
Description: Test for Evaluating Analgesic Effect on Carrageenin Induced Hyperalgesia in Rats
The animals were SD male rats (5-week old). Before treatment with carrageenin (or distilled water), the rats were measured for nociceptive thresholds in their right hind leg by the Randall-Selitto method and divided into a carrageenin treatment group and a non-treatment group to provide uniformity in nociceptive threshold. The carrageenin treatment group was given a 1 w/v % carrageenin solution and the non-treatment group given distilled water, each administered subcutaneously to the footpad of the right hind leg at a dose of 0.1 mL. Five hours after the treatment, the nociceptive thresholds were measured and the individuals with decreased thresholds were selected and grouped such that there was no inter-group difference in threshold. Six hours after the treatment, each test compound was orally administered at a dose of 10 mg/5 mL/kg. The control group was administered 0.5% methylcellulose. Two hours after the administration of the test compound (8 hours after the treatment), the nociceptive threshold was measured. The animals in the test compound group that had nociceptive thresholds greater than [(the mean nociceptive threshold of the control group)+2×standard deviation] were found “effective animals” and the percent effectiveness of each compound was calculated.

T1 sequence (P43114 whole entry): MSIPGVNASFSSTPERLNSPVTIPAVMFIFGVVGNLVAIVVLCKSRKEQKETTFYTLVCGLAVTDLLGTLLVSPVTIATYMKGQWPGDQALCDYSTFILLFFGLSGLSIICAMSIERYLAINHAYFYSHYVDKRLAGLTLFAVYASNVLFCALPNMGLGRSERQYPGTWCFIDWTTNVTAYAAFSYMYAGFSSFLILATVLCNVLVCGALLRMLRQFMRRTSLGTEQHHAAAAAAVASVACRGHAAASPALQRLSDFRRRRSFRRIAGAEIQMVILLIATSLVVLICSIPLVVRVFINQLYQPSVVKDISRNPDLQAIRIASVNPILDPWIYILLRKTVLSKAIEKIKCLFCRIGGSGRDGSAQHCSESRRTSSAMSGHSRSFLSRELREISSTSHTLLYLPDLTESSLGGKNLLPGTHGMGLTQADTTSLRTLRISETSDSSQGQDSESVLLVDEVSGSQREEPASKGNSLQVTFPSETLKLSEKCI

Compound | Percent paw edema suppression at the maximum efficacy ([1]; positive control, maximum efficacy at doses of 10˜30 mg/kg) | suppression of right knee joint pain (ratio between the loads on the right and left hind legs) [2] | Percent paw edema suppression [1] [%] | IC50 (rat EP4 receptor) [nM] | Percent paw edema suppression [3] [%] | Percent Effectiveness [3] [%] | responders at 10 mg/kg [4] [%]
Cc1ccc(-c2cc(C(F)(F)F)nn2-c2ccc(S(N)(=O)=O)cc2)cc1 [Cerecoxib, reference compound] | 32˜37% |  |  |  |  |  | 
COC(C)(C)C#Cc1nc(Cl)n(Cc2ccc(C(F)(F)F)cc2)c1C(=O)NC[C@H]1CC[C@H](C(=O)O)CC1 [Compound 10, trans-4-({2-Chloro-4-(3-methoxy-3-methyl-1-butyn-1-yl)-1-[4-(trifluormethyl)benzyl]-1H-imidazole-5-carboxamido}methyl)cyclohexanecarboxylic acid] |  | suppression of right knee joint pain was confirmed | 26 | 10.9 | 82 | 78 | 100
COC(C)(C)C#Cc1nc(Cl)n(Cc2ccc(C)cc2)c1C(=O)NC[C@H]1CC[C@H](C(=O)O)CC1 [Compound 22, trans-4-{[2-Chloro-4-(3-methoxy-3-methyl-1-butyn-1-yl)-1-(4-methylbenzyl)-1H-imidazole-5-carboxamido]methyl}cyclohexanecarboxylic acid] |  | suppression of right knee joint pain was confirmed | 19 | 11.8 | 90 | 60 | 83
CC(C)(O)C#Cc1nc(Cl)n(CCOc2ccc(Cl)cc2)c1C(=O)NCC1CCC(C(=O)O)CC1 (stereo not shown) [Compound 39] |  |  | 22 | 35 |  |  | 100
COC(C)(C)C#Cc1nc(Cl)n(CCOc2ccc(Cl)cc2)c1C(=O)NCC1CCC(C(=O)O)CC1 (stereo not shown) [Compound 40] |  |  | 29 | 9.5 |  |  | 100
COC(C)(C)C#Cc1nc(Cl)n(Cc2ccc(C(F)(F)F)cc2)c1C(=O)NC1(c2ccc(C(=O)O)cc2)CC1 [Compound 42, 4-(1-{2-Chloro-4-(3-methoxy-3-methyl-1-butyn-1-yl)-1-[4-(trifluoromethyl)benzyl]-1H-imidazole-5-carboxamido}cyclopropyl)benzoic acid] |  | suppression of right knee joint pain was confirmed | 28 | 1.7 | 88 | 90 | 83
COC(C)(C)C#Cc1nc(C2CC2)n(CCOc2ccc(Cl)cc2)c1C(=O)NCc1ccc(C(=O)O)cc1 [Compound 47, 4-({1-[2-(4-Chlorophenoxy)ethyl]-2-cyclopropyl-4-(3-methoxy-3-methyl-1-butyn-1-yl)-1H-imidazole-5-carboxamido}methyl)benzoic acid] |  |  | 26 | 34.7 |  |  | 67

— patent US9855257B2, “4-alkynyl imidazole derivative and medicine comprising same as active ingredient” (KAKEN PHARMACEUTICAL CO., LTD., priority 2013, dated 2018)
